Measured values published in publication PMC10778980, “Profiling Novel Quinuclidine-Based Derivatives as Potential Anticholinesterase Drugs: Enzyme Inhibition and Effects on Cell Viability” (International Journal of Molecular Sciences, 2023).
Entries after “also recorded” stand apart in the source; their conditions may differ. Like-named read-outs stand apart in the source and are kept apart here.

Assays:
HepG2 cells [1] = assay: Cytotoxicity assay (MTS) on HepG2; type: cell-based; settings: Homo sapiens
Method: (§1) SH-SY5Y cells were grown in DMEM F12 (Sigma-Aldrich, St. Louis, MO, USA) supplemented with 15% (v/v) fetal bovine serum (FBS), 2 mM glutamine, and 1% (v/v) non-essential amino acids (NEAA). HepG2 cells were grown in EMEM supplemented with 10% (v/v) FBS, 2 mM glutamine, and 1% (v/v) non-essential amino acids NEAA. All media and supplements were purchased from Sigma-Aldrich, Steinheim, Germany.
(§2) The procedure followed a previously described protocol.

human BChE = biological target: T1, human BChE (Homo sapiens, UniProt P06276); assay: biochemical
T1 construct: Plasma was removed and used as a source of BChE; from tissue; host or cells: human blood plasma from a healthy volunteer
T1 sequence (P06276 29-602): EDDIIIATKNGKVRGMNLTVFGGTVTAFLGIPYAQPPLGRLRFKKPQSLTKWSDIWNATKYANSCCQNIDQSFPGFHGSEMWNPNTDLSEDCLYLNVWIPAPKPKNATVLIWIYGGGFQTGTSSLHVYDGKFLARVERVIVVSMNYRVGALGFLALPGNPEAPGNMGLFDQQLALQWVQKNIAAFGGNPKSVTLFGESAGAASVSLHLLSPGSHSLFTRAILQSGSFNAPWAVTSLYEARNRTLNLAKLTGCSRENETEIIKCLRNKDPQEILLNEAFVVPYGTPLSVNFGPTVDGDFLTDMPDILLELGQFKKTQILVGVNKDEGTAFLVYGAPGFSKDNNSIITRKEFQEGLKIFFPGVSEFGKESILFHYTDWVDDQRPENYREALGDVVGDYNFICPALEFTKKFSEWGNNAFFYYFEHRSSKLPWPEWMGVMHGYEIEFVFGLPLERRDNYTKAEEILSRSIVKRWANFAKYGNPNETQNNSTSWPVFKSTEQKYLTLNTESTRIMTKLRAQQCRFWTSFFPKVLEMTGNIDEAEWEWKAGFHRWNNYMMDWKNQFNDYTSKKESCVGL
Excerpt: (§3) Cholinesterase substrate acetylthiocholine (ATCh) and the thiol reagent 5,5′-dithiobis(2-nitrobenzoic acid) (DTNB) for the enzyme activity measurement were purchased from Sigma-Aldrich (St. Louis, MO, USA). The sources of human AChE and BChE were native erythrocytes and plasma, respectively, obtained from the blood of a healthy volunteer and in accordance with the approval of the Ethics Committee of the Institute for Medical Research and Occupational Health (approval number: 100-21/23-6). Erythrocytes and plasma were isolated from the whole blood and prepared according to a previously published procedure. Namely, venous blood was collected into a heparinized tube and centrifuged (at 4 °C, 20 min on 2500 rpm, Eppendorf centrifuge 5702R) to separate plasma from the erythrocytes. Plasma was removed and used as a source of BChE, while erythrocytes were washed twice with the 0.1 M sodium phosphate buffer, pH 7.4, in a volume corresponding to the initial volume of the whole blood. Both plasma and erythrocytes were frozen at −20 °C until use. Quinuclidine compounds were dissolved in dH2O as 10 or 100 mM; exceptionally, 3-hydroxyimino compounds with longer chains (C12−C16) were dissolved in DMSO as 100 mM solutions. Stock solutions were kept at 4 °C until use. Further dilutions were made in distilled water.
(§4) The reversible inhibition experiments followed a previously published procedure. Namely, the enzyme activity was measured in the presence of a wide range of quinuclidine compound concentrations and in the substrate range from 0.1 to 0.5 mM to confirm the type of compound binding. The activity was assayed following the Ellman’s procedure, with the modification in the wavelength used for detection of the TNB anion in the case of AChE activity measurement due to the interference of the hemoglobin, and according to Worek et al.. The assay was performed in 96-well plates on an Infinite M200PRO plate reader (Tecan Austria GmbH, Salzburg, Austria) at 25 °C. Each concentration was tested in triplicate or quadruplicate on each plate. The inhibition mixture contained 0.1 M sodium phosphate buffer, pH 7.4, enzyme (AChE or BChE), quinuclidine compound (0.2–400 μM final), DTNB (0.3 mM final), and ATCh (from 0.1 to 0.5 mM final) to start the reaction. The increase in absorbance was read at 436 nm for AChE and at 412 nm for BChE. The measured activity in the presence of compounds was corrected for the non-enzymatic hydrolysis of substrate ATCh, if detected. The reversible enzyme–quinuclidine complex dissociation constants (the inhibition constants) Ki were evaluated from the effect of the substrate concentration on the degree of inhibition according to the Hunter–Downs equation as described previously, taking into account only quinuclidine concentrations where 20–80% inhibition of the activity was observed.

SH-SY5Y cells [2] = assay: Cytotoxicity assay (MTS) on SH-SY5Y; type: cell-based; settings: Homo sapiens
Method: as §1, §2

human AChE = biological target: T2, human AChE (Homo sapiens, UniProt P22303); assay: Reversible inhibition of AChE (Ellman's procedure, Hunter–Downs evaluation); type: biochemical; settings: for Ki: Ki ± standard error, 0.1, 0.2, 0.35 and 0.5 mM substrate ATCh, 25 °C, pH 7.4; for Ki (AChE)/Ki (BChE): selectivity ratio
T2 construct: The sources of human AChE and BChE were native erythrocytes and plasma, respectively; from tissue; host or cells: human erythrocytes from venous blood of a healthy volunteer
T2 sequence (P22303 32-617 isoform P22303-2 limits assumed): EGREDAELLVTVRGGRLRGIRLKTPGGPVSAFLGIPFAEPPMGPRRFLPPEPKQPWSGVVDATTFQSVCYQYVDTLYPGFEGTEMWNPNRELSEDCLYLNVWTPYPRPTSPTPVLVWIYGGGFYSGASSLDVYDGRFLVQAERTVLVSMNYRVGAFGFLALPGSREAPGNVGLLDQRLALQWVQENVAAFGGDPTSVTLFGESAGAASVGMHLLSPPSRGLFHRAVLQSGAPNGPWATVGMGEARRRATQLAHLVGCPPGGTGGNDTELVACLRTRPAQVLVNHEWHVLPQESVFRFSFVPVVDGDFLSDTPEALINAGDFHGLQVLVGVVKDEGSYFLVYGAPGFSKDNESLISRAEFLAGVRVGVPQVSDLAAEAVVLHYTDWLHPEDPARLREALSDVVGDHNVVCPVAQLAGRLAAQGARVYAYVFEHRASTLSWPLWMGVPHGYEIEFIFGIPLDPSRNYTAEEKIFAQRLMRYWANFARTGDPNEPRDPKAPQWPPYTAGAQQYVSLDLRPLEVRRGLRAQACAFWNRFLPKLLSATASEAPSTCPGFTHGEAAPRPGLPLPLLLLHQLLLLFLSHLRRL
Excerpt: as §3, §4

SH-SY5Y cells [3] = assay: Mitochondrial membrane potential (TMRE assay) on SH-SY5Y; type: cell-based, human; settings: 4 h exposure, LOAEL concentrations
Method: (§5) Human neuroblastoma SH-SY5Y (ECACC 94030304) and human hepatocyte carcinoma HepG2 (ECACC 85011430) were used to evaluate in vitro dose- and time-dependent different cell effects. The SH-SY5Y cell line was selected as it represents a well-established model for studying neuronal cells, while HepG2 hepatocytes represent a liver model as a major organ participating in the metabolism of diverse compounds [31, 61, 62]. SH-SY5Y cells were grown in DMEM F12 (Sigma-Aldrich, St. Louis, MO, USA) supplemented with 15% (v/v) fetal bovine serum (FBS), 2 mM glutamine, and 1% (v/v) non-essential amino acids (NEAA). HepG2 cells were grown in EMEM supplemented with 10% (v/v) FBS, 2 mM glutamine, and 1% (v/v) non-essential amino acids NEAA. All media and supplements were purchased from Sigma-Aldrich, Steinheim, Germany.
(§6) Mitochondrial membrane potential (ΔΨm) was determined using a cell-permeable, potential-sensitive cationic dye, tetramethylrhodamine ethyl ester perchlorate (TMRE, Cell Signaling Technology Europe, Leiden, The Netherlands). Cells were exposed for 4 h to derivatives 3–5 and 10–12. The procedure followed a previously described protocol. A concentration of 50 µM carbonyl cyanide 3-chlorophenylhydrazone (CCCP, Cell Signaling Technology Europe, Leiden, The Netherlands) was used as a positive control. Data were evaluated from at least three independent experiments (performed in duplicate) and presented as a normalized signal to the untreated control, according to the manufacturer’s calculation protocol.

HepG2 cells [4] = assay: Cell membrane integrity (LDH release) on HepG2; type: cell-based, human; settings: HepG2, 4 h exposure, 12.5–200 µM
Method: as §5
(§7) Cell membrane integrity was determined after 4 h exposure to derivatives 3–5 and 10–12 by measuring the release of the intracellular lactate dehydrogenase (LDH), and the procedure followed a previously described protocol using The CytoTox-ONE™ Homogeneous Membrane Integrity Assay (Promega, Madison, WI, USA). Triton X-100 at a final concentration of 0.18% (v/v) (stock of 9% in water; Sigma-Aldrich, Steinheim, Germany) was used as a positive control to determine the maximal LDH release. Data were taken from at least two independent experiments (each treatment performed in duplicate) and plotted as a percentage of LDH release compared to the determined maximal LDH release, according to the manufacturer’s calculation protocol.

SH-SY5Y cells [5] = assay: Cell membrane integrity (LDH release) on SH-SY5Y; type: cell-based, human; settings: 4 h exposure, 12.5–200 µM
Method: as §5, §7

HepG2 cells [6] = assay: Mitochondrial membrane potential (TMRE assay) on HepG2; type: cell-based, human; settings: HepG2, 4 h exposure, LOAEL concentrations
Method: as §5, §6

[7] = HepG2, read-out: IC50 ± SE HepG2 1 h, 1 h exposure
[8] = HepG2, 4 h exposure, read-out: IC50 ± SE HepG2 4 h
[9] = HepG2, 24 h exposure, read-out: IC50 ± SE HepG2 24 h
[10] = Ki ± standard error, 0.1, 0.2, 0.35 and 0.5 mM substrate ATCh, 25 °C, pH 7.4, read-out: Ki BChE
[11] = 4 h exposure, read-out: IC50 ± SE SH-SY5Y 4 h
[12] = 24 h exposure, read-out: IC50 ± SE SH-SY5Y 24 h
[13] = read-out: IC50 ± SE SH-SY5Y 1 h, 1 h exposure

How did the IC50 (HepG2 cells [1]; [7]) turn out when `OC1C[N+]2(CCCCCCCC[N+]34CCC(CC3)C(O)C4)CCC1CC2` (centres unmarked) [Compound 6, 1,1′-(octano)bis(3-hydroxyquinuclidinium bromide)] was run?
The IC50 was no less than 800 µM.

And the IC50 (HepG2 cells [1]; [8])?
Its IC50 is no less than 800 µM.

And the IC50 (HepG2 cells [1]; [9])?
Its IC50 is no less than 800 µM.

What about the Ki (human BChE; [10]) of the same compound?
Its Ki is 12.9 ± 1 µM.

What about the IC50 (SH-SY5Y cells [2]; [11]) of the same compound?
The IC50 was no less than 800 µM.

And the IC50 (SH-SY5Y cells [2]; [12])?
Its IC50 is no less than 800 µM.

And the IC50 (SH-SY5Y cells [2]; [13])?
The IC50 was no less than 800 µM.

And the Ki (human AChE)?
Its Ki is 24 ± 1.1 µM.

And the “Ki (AChE)/Ki (BChE)” value (human AChE)?
The value was 1.9.

With `CCCCCCCCCCCCCC[N+]12CCC(CC1)C(O)C2` (centres unmarked) [Compound 4] as the compound, how does the IC50 (HepG2 cells [1]; [7]) read?
Its IC50 is 35 ± 1 µM.

And the IC50 (HepG2 cells [1]; [8])?
The IC50 was 32 ± 1 µM.

And the IC50 (HepG2 cells [1]; [9])?
Its IC50 is 43 ± 1 µM.

What about the “Mitochondrial membrane potential (ΔΨm)” value (SH-SY5Y cells [3]) of the same compound?
The value was “decrease in the mitochondrial membrane potential”.

What about the LDH release (HepG2 cells [4]) of the same compound?
Its LDH release is “strongest effect; also recorded: significant LDH release”.

And the LDH release (SH-SY5Y cells [5])?
Its LDH release is “significant LDH release”.

And the Ki (human BChE; [10])?
Its Ki is 7.9 ± 0.7 µM.

What about the IC50 (SH-SY5Y cells [2]; [11]) of the same compound?
The IC50 was 9 ± 1 µM.

And the IC50 (SH-SY5Y cells [2]; [12])?
The IC50 was 7 ± 1 µM.

What about the IC50 (SH-SY5Y cells [2]; [13]) of the same compound?
Its IC50 is 16 ± 1 µM.

What about the “Mitochondrial membrane potential (ΔΨm)” value (HepG2 cells [6]) of the same compound?
Its value is “decrease in the mitochondrial membrane potential”.

And the Ki (human AChE)?
The Ki was 4.2 ± 0.5 µM.

And the “Ki (AChE)/Ki (BChE)” value (human AChE)?
Its value is 0.5.

`CCCCCCCC[N+]12CCC(CC1)C(=NO)C2.[Br-]` [Compound 8, 1-octyl-3-hydroxyiminoquinuclidinium bromide] was tested. Which IC50 (HepG2 cells [1]; [7]) did it give?
Its IC50 is no less than 800 µM.

And the IC50 (HepG2 cells [1]; [8])?
The IC50 was no less than 800 µM.

What about the IC50 (HepG2 cells [1]; [9]) of the same compound?
The IC50 was no less than 800 µM.

What about the Ki (human BChE) of the same compound?
The Ki was 37.9 ± 10.4 µM.

And the IC50 (SH-SY5Y cells [2]; [11])?
Its IC50 is no less than 800 µM.

What about the IC50 (SH-SY5Y cells [2]; [12]) of the same compound?
Its IC50 is no less than 800 µM.

And the IC50 (SH-SY5Y cells [2]; [13])?
Its IC50 is no less than 800 µM.

What about the Ki (human AChE) of the same compound?
Its Ki is 82.7 ± 3.5 µM.

What about the “Ki (AChE)/Ki (BChE)” value (human AChE) of the same compound?
The value was 2.2.

Which IC50 (HepG2 cells [1]; [7]) does the source give for `CCCCCCCCCCCCCCCC[N+]12CCC(CC1)C(O)C2` (centres unmarked) [Compound 5] here?
The IC50 was 46 ± 1 µM.

And the IC50 (HepG2 cells [1]; [8])?
The IC50 was 26 ± 1 µM.

What about the IC50 (HepG2 cells [1]; [9]) of the same compound?
The IC50 was 28 ± 1 µM.

And the “Mitochondrial membrane potential (ΔΨm)” value (SH-SY5Y cells [3])?
Its value is “decrease in the mitochondrial membrane potential”.

What about the LDH release (HepG2 cells [4]) of the same compound?
Its LDH release is “strongest effect; also recorded: significant LDH release”.

What about the LDH release (SH-SY5Y cells [5]) of the same compound?
Its LDH release is “significant LDH release”.

What about the Ki (human BChE; [10]) of the same compound?
Its Ki is 26.1 ± 2.4 µM.

And the IC50 (SH-SY5Y cells [2]; [11])?
The IC50 was 8 ± 1 µM.

And the IC50 (SH-SY5Y cells [2]; [12])?
Its IC50 is 7 ± 1 µM.

What about the IC50 (SH-SY5Y cells [2]; [13]) of the same compound?
Its IC50 is 11 ± 1 µM.

And the “Mitochondrial membrane potential (ΔΨm)” value (HepG2 cells [6])?
The value was “strongest effect; also recorded: decrease in the mitochondrial membrane potential”.

What about the Ki (human AChE) of the same compound?
The Ki was 9 ± 1.3 µM.

What about the “Ki (AChE)/Ki (BChE)” value (human AChE) of the same compound?
Its value is 0.3.

For `CCCCCCCCCC[N+]12CCC(CC1)C(O)C2` (centres unmarked) [Compound 2], which IC50 (HepG2 cells [1]; [7]) is on record?
The IC50 was no less than 800 µM.

What about the IC50 (HepG2 cells [1]; [8]) of the same compound?
The IC50 was no less than 800 µM.

And the IC50 (HepG2 cells [1]; [9])?
Its IC50 is no less than 537 µM.

And the Ki (human BChE; [10])?
The Ki was 11.8 ± 1.1 µM.

And the IC50 (SH-SY5Y cells [2]; [11])?
The IC50 was no less than 800 µM.

And the IC50 (SH-SY5Y cells [2]; [12])?
The IC50 was no less than 800 µM.

What about the IC50 (SH-SY5Y cells [2]; [13]) of the same compound?
The IC50 was no less than 800 µM.

What about the Ki (human AChE) of the same compound?
The Ki was 63.8 ± 5.1 µM.

And the “Ki (AChE)/Ki (BChE)” value (human AChE)?
The value was 5.4.
